TGI data for 18 compounds are collected here from PubChem BioAssay (NCI).

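Exposure lasted 48 hours, with cells grown in 96-well plates and compounds tested at five concentrations. TGI: total growth inhibition.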

Assay in all cases: NCI tumour cell line growth inhibition, 48 h
Test [1] concerns LXFL 529 NSCLC.
Test [2] has as its system CAKI-1 renal.
The test system of test [3] is KM12 colon.
The test system of test [4] is OVCAR-5 ovarian.
The subject of test [5] is UACC-62 melanoma.
The subject of test [6] is ACHN renal.
Test [7] relates to COLO 205 colon.
In test [8] the test system is A549 NSCLC.
The test system of test [9] is HCT-116 colon.
For test [10], the system named is NCI-H23 lung.
For test [11], the system named is HOP-62 NSCLC.
The subject of test [12] is SF-268 CNS.
Test [13] deals with SN12C renal.
Test [14] deals with 786-0 renal.
Test [15] relates to K-562 leukemia.
Test [16] deals with U251 CNS.

As to `O=C1[C@@H]2C(c3ccccc3[N+](=O)[O-])=[N+](c3ccccc3)O[C@@H]2C(=O)N1c1ccc(Cc2ccc(N3C(=O)[C@H]4C(c5ccccc5[N+](=O)[O-])=[N+](c5ccccc5)O[C@H]4C3=O)cc2)cc1`, the TGI in test [1], in [2], in test [3], in test [4], in test [5] and in [6] was over 100 µM in each case. For the same compound, the TGI in [7], in test [8], in test [9], in [10], in test [11] and in test [12] was over 100 µM each time. Moreover, the TGI in [13], in [14], in test [15] and in test [16] was over 100 µM throughout.

`OCCCNc1ccnc2cc(Cl)ccc12`: the TGI in test [1], in [2], in test [3], in test [4], in test [5] and in test [6] was over 100 µM throughout. Further, the TGI in [7], in test [8], in test [9], in test [10], in test [11] and in test [12] was over 100 µM each time. The TGI in [13], in test [14], in [15] and in [16] was over 100 µM throughout.

For the compound `Cc1cc(C)n(-c2ccnc3cc(Cl)ccc23)n1`, the TGI in test [1], in test [3], in test [4], in test [5], in test [6] and in [7] was over 100 µM each time. Moreover, the TGI in test [8], in test [9], in [10], in test [11], in test [12] and in test [13] was over 100 µM each time. Further, the TGI in test [14], in test [15] and in test [16] was over 100 µM in each case.

For the compound `C(=N\Nc1ccccc1)/c1nc2ccccc2nc1/C=N/Nc1ccccc1`, the TGI in test [1] came out at 23 µM; in test [2], 21.4 µM; in test [3], 41 µM; in test [4], 84.9 µM; in test [5], 27.3 µM; in [6], 30.6 µM. Moreover, the TGI in [8] worked out at 28.8 µM; in [9], 25.7 µM; in test [10], 27.2 µM; in [11], 34.6 µM; in test [12], 29.3 µM; in test [13], 36.4 µM. In addition, the results for the TGI in test [14] and in [15] were 29.5 µM and 20.5 µM, respectively.

As for `Clc1ccc(CCn2cncn2)cc1`, the TGI in test [1], in test [2], in test [3], in [4], in test [5] and in test [6] was over 100 µM each time. For the same compound, the TGI in test [7], in test [8], in [9], in test [10], in test [11] and in test [12] was over 100 µM in each case. For the same compound, the TGI in test [13], in [14], in [15] and in test [16] was over 100 µM in each case.

Take `O=C1CC2(CCC3=C(O2)c2ccccc2NC(=O)C3)C(=O)c2ccccc2N1` (stereo not given): the TGI in test [1], in [3], in test [4], in test [5], in [6] and in test [7] was over 100 µM throughout. The TGI in [8], in test [9], in test [10], in test [11], in test [12] and in test [13] was over 100 µM each time. Further, the TGI in test [14], in test [15] and in test [16] was over 100 µM in each case.

Regarding `O=C(c1nc2ccccc2[nH]c1=O)C(O)c1ccco1` (stereo not given), the TGI in test [1], in test [3], in test [4], in test [5], in test [6] and in test [7] was over 100 µM throughout. In addition, the TGI in test [8], in test [9], in [10], in test [11], in test [12] and in [13] was over 100 µM each time. Besides, the TGI in test [14], in [15] and in test [16] was over 100 µM throughout.

`NC(=O)/C(=N\NC(=O)C[n+]1ccccc1)C1NC(=O)NC1=O` (stereo not given): the TGI in [1], in test [2], in [3], in test [4], in test [5] and in [6] was over 100 µM in each case. For the same compound, the TGI in [7], in test [8], in test [9], in test [10], in test [11] and in test [12] was over 100 µM throughout. In addition, the TGI in test [13], in test [14] and in [15] was over 100 µM throughout.

With `O=c1c2ccccc2nc2n1-c1ccccc1SC2`, the TGI in [1], in [2], in [3], in test [4], in test [5] and in test [6] was over 100 µM in each case. Moreover, the TGI in test [7], in test [8], in test [9], in test [10], in [11] and in test [12] was over 100 µM in each case. Moreover, the TGI in test [13], in test [14], in [15] and in test [16] was over 100 µM each time.

In the case of `N#CC1=C(c2ccccc2)C(=C2Nc3ccccc3N2)C2S/C(=C\c3ccccc3)C(=O)N2C1=N` (stereo not given), the TGI in [1] came out at 10.8 µM; in [2], 4.01 µM; in test [3] it was 15.1 µM; in [4], 5.84 µM; in test [5] it was 4.76 µM; in [6], 10.1 µM. In addition, the TGI in [7] was 20.5 µM; in test [8] it was 12.9 µM; in test [9], 10.9 µM; in test [10], 4.49 µM; in test [11], 5.1 µM; in test [12], 6.35 µM. For the same compound, the TGI was 11.4 µM in [13], 6.09 µM in test [14], 50.5 µM in test [15] and 5.54 µM in [16].

Turning to `CCOC(=O)C(C(=O)OCC)c1ccc([N+](=O)[O-])o1`, the TGI in [1] is 11.2 µM; in test [2] it was 16.1 µM; in test [3] it was 33.9 µM; in [4], 32.1 µM; in test [5], 35.9 µM; in test [6], 22.6 µM. In addition, the TGI in [7] is 10.4 µM; in test [8] it was 43.4 µM; in [9], 29 µM; in [10], 32.3 µM; in [11], over 75.5 µM; in test [12], 70.3 µM. Further, the TGI is 32.2 µM in test [13], 13.4 µM in test [14], over 30.7 µM in test [15] and 36.8 µM in test [16].

Regarding `C=CCN1COc2c(cc3c4c(cccc24)C(=O)O3)C1`, the TGI in test [1] is 35.1 µM; in [2] it was 49.3 µM; in [3] it was over 100 µM; in [4] it was over 100 µM; in test [5] it was 36.8 µM; in [6], over 10 µM. Further, the TGI in [7] is 33.1 µM; in [8] it was over 100 µM; in [9], 36.7 µM; in test [10], 47 µM; in test [11] it was over 100 µM; in test [12], over 100 µM. Moreover, the TGI in test [13] is 35.5 µM; in test [14], 39.1 µM; in test [15] it was 68.6 µM; in test [16], over 100 µM.

For `C/C(CC(=O)Nc1cc(C)ccc1C)=N/N=C(N)N`, the TGI in [1], in test [3], in [4], in test [5], in [6] and in test [7] was over 100 µM each time. Moreover, the TGI in test [8], in [9], in test [10], in test [11], in [12] and in test [14] was over 100 µM in each case. For the same compound, the TGI in test [15] and in test [16] was over 100 µM throughout.

Consider `CCCCC(C(=O)CCC(=O)Nc1ccc(Cl)c(Cl)c1)C(=O)C(C)C` (stereo not given), for which the TGI in [1] was over 100 µM; in test [2] it was over 100 µM; in test [3], over 100 µM; in test [4], 88.8 µM; in test [5] it was over 100 µM; in test [6], over 100 µM. The TGI in test [7], in [8], in test [9], in [10], in test [11] and in test [12] was over 100 µM each time. In addition, the TGI in [13], in test [14], in test [15] and in [16] was over 100 µM in each case.

On to `O=C(c1ccccc1)C(c1ccccc1)C1(O)C(=O)Nc2ccc([N+](=O)[O-])cc21` (stereo not given), for which the TGI in [1], in test [2], in [4], in [5], in [6] and in test [7] was over 100 µM in each case. Also, the TGI in test [8], in test [9], in test [10], in [11], in [12] and in test [13] was over 100 µM in each case. Moreover, the TGI in [14], in [15] and in [16] was over 100 µM in each case.

`O=[N+]([O-])c1cc([N+](=O)[O-])c(/C=C/c2ccc(Cl)c(Cl)c2)cc1/C=C/c1ccc(Cl)c(Cl)c1`: the TGI in test [1] was 56.1 µM; in test [2], over 100 µM; in [3], 51.1 µM; in test [4], over 100 µM; in test [5] it was 79.6 µM; in test [6], 81.9 µM. Also, the TGI in test [7] was 38.6 µM; in test [8] it was over 100 µM; in [10], 50.8 µM; in [12], 75.8 µM; in test [13], 43.1 µM; in test [14], 60.3 µM. The TGI was 78.8 µM in [15] and over 100 µM in [16].

Regarding `O=C1C=CC2(C=C1)CCNC1=C2C(=O)c2ccccc2C1=O`, the TGI in test [1], in test [3], in test [4], in test [5], in test [6] and in test [7] was over 100 µM throughout. Moreover, the TGI in [8], in test [9], in test [10], in test [11], in test [12] and in [13] was over 100 µM each time. For the same compound, the TGI in test [14], in [15] and in [16] was over 100 µM throughout.

In the case of `Cc1nc(N2N=C(c3ccc(Cl)cc3)CCC2=O)sc1[N+](=O)[O-]`, the TGI in test [1], in test [2], in [3], in test [5], in [6] and in [7] was over 100 µM each time. The TGI in [8], in test [9], in test [10], in test [11], in test [12] and in [13] was over 100 µM throughout. Besides, the TGI in test [14], in [15] and in test [16] was over 100 µM in each case.
